# Source: patent publication US11597706B2, “Compounds and compositions for treating conditions associated with NLRP activity” (Novartis AG, priority 2016, dated 2023)
# Biological target: T1, hNLRP3 (THP-1, IL-1β) (Homo sapiens, UniProt Q96P20)
# T1 construct: THP-1 cells were purchased from the American Type Culture Collection; host or cells: THP-1 cells, PMA-differentiated, stimulated with gramicidin
# Experiment: IL-1β production in PMA-differentiated THP-1 cells stimulated with gramicidin
# Format: cell-based
# Conditions: Table 2, gramicidin 5 μM, IL-1β readout
# Method: IL-1β Production in PMA-Differentiated THP-1 Cells Stimulated With Gramicidin.
# Cell culture-THP-1 cells were purchased from the American Type Culture Collection and sub-cultured according to instructions from the supplier. Prior to experiments, cells were cultured in RPMI 1640 containing 10% heat inactivated FBS, penicillin (100 units/ml) and streptomycin (100 μg/ml), and maintained in log phase prior to experimental setup. Prior to the experiment THP-1 were treated with PMA (Phorbol 12-myristate 13-acetate) (10 μg/ml) for 24 hours. The day of the experiment the media was removed and attaching cells were treated with trypsin for 2 minutes, cells were then collected, washed with PBS (phosphate buffer saline), spin down, resuspended in 2% heat inactivated FBS with RPMI at a concentration of 1×10^6 cells/ml, and 100 μl was plated in a 96 well plate. Cells were incubated with compounds for 1 hours and then stimulated with Gramicidin (5 μM) (Enzo) for 2 hours. Cell free supernatant was collected and the production of IL-1β was evaluated by ELISA. Compounds were dissolved in dimethyl sulfoxide (DMSO) and added to the culture medium to achieve desired concentration (e.g. 100, 30, 10, 3, 1, 0.3 or 0.1 μM). A vehicle only control was run concurrently with each experiment. Final DMSO concentration was 1%.
# THP-1 cells were purchased from the American Type Culture Collection and sub-cultured according to instructions from the supplier. Prior to experiments, cells were cultured in complete RPMI 1640 (containing 10% heat inactivated FBS, penicillin (100 units/ml) and streptomycin (100 μg/ml)), and maintained in log phase prior to experimental setup. Prior to the experiment THP-1 were treated with PMA (Phorbol 12-myristate 13-acetate) (20 ng/ml) for 16-18 hours. On the day of the experiment the media was removed and adherent cells were detached with trypsin for 5 minutes. Cells were then harvested, washed with complete RPMI 1640, spun down, resuspended in RPMI 1640 (containing 2% heat inactivated FBS, penicillin (100 units/ml) and streptomycin (100 μg/ml). The cells were plated in a 384-well plate at a density of 50,000 cells/well (final assay volume 50 μl). Compounds were dissolved in dimethyl sulfoxide (DMSO) and added to the culture medium to achieve desired concentration (e.g. 100, 33, 11, 3.7, 1.2, 0.41, 0.14, 0.046, 0.015, 0.0051, 0.0017 μM). Cells were incubated with compounds for 1 hour and then stimulated with gramicidin (5 μM) (Enzo) for 2 hours. Cell free supernatant was collected and the production of IL-1β was evaluated by HTRF (cisbio). A vehicle only control was run concurrently with each experiment. Final DMSO concentration was 0.38%.
# T1 sequence (Q96P20 whole entry): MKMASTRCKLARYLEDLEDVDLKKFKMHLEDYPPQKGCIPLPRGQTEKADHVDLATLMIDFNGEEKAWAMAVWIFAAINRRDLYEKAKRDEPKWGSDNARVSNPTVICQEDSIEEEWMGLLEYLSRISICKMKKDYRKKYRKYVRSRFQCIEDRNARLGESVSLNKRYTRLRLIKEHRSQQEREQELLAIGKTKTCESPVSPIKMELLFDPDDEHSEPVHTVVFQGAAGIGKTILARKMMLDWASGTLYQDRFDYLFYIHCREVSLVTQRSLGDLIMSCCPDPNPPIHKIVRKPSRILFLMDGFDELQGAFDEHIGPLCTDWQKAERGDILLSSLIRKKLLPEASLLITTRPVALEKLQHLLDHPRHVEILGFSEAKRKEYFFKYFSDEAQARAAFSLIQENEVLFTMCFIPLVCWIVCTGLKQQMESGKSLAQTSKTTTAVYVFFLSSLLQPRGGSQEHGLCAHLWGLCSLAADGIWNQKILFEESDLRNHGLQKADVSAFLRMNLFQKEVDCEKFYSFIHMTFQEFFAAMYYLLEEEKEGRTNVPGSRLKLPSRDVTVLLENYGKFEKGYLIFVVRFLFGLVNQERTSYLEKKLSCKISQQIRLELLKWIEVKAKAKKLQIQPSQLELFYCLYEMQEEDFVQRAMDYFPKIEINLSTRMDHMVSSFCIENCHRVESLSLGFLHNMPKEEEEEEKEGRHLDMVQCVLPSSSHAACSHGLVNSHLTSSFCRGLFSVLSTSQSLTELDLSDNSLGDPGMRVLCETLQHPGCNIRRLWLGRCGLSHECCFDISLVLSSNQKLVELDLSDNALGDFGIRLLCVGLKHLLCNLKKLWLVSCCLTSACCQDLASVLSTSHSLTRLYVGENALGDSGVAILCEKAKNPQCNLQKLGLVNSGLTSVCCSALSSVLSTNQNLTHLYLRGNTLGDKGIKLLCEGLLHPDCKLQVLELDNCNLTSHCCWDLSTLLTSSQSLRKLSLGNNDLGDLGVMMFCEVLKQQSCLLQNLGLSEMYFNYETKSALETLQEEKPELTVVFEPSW
row,IC50,Compound
1,1 to 5 µM,"CC(C)c1cc(Cl)cc(C(C)C)c1NC(=O)NS(=O)(=O)c1cc(Cl)cc(C(C)(C)O)c1 [Compound 154, 3-chloro-N-(4-chloro-2,6-diisopropylphenylcarbamoyl)-5-(2-hydroxypropan-2-yl)benzenesulfonamide]"
2,1 to 5 µM,"CC(C)c1ccc(F)c(C(C)C)c1NC(=O)NS(=O)(=O)c1cc(C(C)(C)O)cc(C(C)(C)O)c1 [Compound 155, N-(3-fluoro-2,6-diisopropylphenylcarbamoyl)-3,5-bis(2-hydroxypropan-2-yl)benzenesulfonamide]"
3,1 to 5 µM,"CC(C)c1ccc(F)c(C(C)C)c1NC(=O)NS(=O)(=O)c1cc(N2CCOCC2)cc(C(C)(C)O)c1 [Compound 157, N-(3-fluoro-2,6-diisopropylphenylcarbamoyl)-3-(2-hydroxypropan-2-yl)-5-morpholinobenzenesulfonamide]"
4,5 to 15 µM,"COC(=O)c1cc(C(C)C)c(NC(=O)NS(=O)(=O)c2cccc(C(C)(C)O)c2)c(C(C)C)c1 [Compound 158, methyl 4-(3-(3-(2-hydroxypropan-2-yl)phenylsulfonyl)ureido)-3,5-diisopropylbenzoate]"
5,5 to 15 µM,"CC(C)c1ccc(F)c(C(C)C)c1NC(=O)NS(=O)(=O)c1cc(-c2ccncc2)cc(C(C)(C)O)c1 [Compound 159, N-(3-fluoro-2,6-diisopropylphenylcarbamoyl)-3-(2-hydroxypropan-2-yl)-5-(pyridin-4-yl)benzenesulfonamide]"
6,< 1 µM,"CC(C)(O)c1ccc(S(=O)(=O)NC(=O)Nc2c3c(c(F)c4c2CCC4)CCC3)cc1 [Compound 160, N-(8-fluoro-1,2,3,5,6,7-hexahydro-sindacen-4-ylcarbamoyl)-4-(2-hydroxypropan-2-yl)benzenesulfonamide]"
7,< 1 µM,"CC(C)(O)c1ccc(S(=O)(=O)NC(=O)Nc2c3c(c(Cl)c4c2CCC4)CCC3)cc1 [Compound 161, N-(8-chloro-1,2,3,5,6,7-hexahydro-sindacen-4-ylcarbamoyl)-4-(2-hydroxypropan-2-yl)benzenesulfonamide]"
8,< 1 µM,"CC(C)c1cc(Cl)cc(C(C)C)c1NC(=O)NS(=O)(=O)c1ccc(C(C)(C)O)cc1 [Compound 162, N-(4-chloro-2,6-diisopropylphenylcarbamoyl)-4-(2-hydroxypropan-2-yl)benzenesulfonamide]"
9,< 1 µM,"CC(C)(O)c1ccc(S(=O)(=O)NC(=O)Nc2c3c(cc4c2CCC4)CCC3)cc1CO [Compound 163, N-(1,2,3,5,6,7-hexahydro-sindacen-4-ylcarbamoyl)-3-(hydroxymethyl)-4-(2-hydroxypropan-2-yl)benzenesulfonamide]"
10,< 1 µM,"CC(C)(O)c1ccc(S(=O)(=O)NC(=O)Nc2c3c(c(C#N)c4c2CCC4)CCC3)cc1 [Compound 164, N-(8-cyano-1,2,3,5,6,7-hexahydro-sindacen-4-ylcarbamoyl)-4-(2-hydroxypropan-2-yl)benzenesulfonamide]"
11,< 1 µM,"CC(C)c1cc(F)cc(C(C)C)c1NC(=O)NS(=O)(=O)c1ccc(C(C)(C)O)cc1 [Compound 165, N-(4-fluoro-2,6-diisopropylphenylcarbamoyl)-4-(2-hydroxypropan-2-yl)benzenesulfonamide]"
12,< 1 µM,"CC(C)(O)c1ccc(S(=O)(=O)NC(=O)Nc2c3c(cc4c2CCC4)CCC3)cn1 [Compound 166, N-(1,2,3,5,6,7-hexahydros-indacen-4-ylcarbamoyl)-6-(2-hydroxypropan-2-yl)pyridine-3-sulfonamide]"
13,< 1 µM,"CC(C)(O)c1ccc(S(=O)(=O)NC(=O)Nc2c3c(cc4c2CCC4)CCC3)cc1 [Compound 167, N-(1,2,3,5,6,7-hexahydros-indacen-4-ylcarbamoyl)-4-(2-hydroxypropan-2-yl)benzenesulfonamide]"
14,1 to 5 µM,"CC(C)c1cc(C#N)cc(C(C)C)c1NC(=O)NS(=O)(=O)c1ccc(C(C)(C)O)cc1 [Compound 168, N-(4-cyano-2,6-diisopropylphenylcarbamoyl)-4-(2-hydroxypropan-2-yl)benzenesulfonamide]"
15,1 to 5 µM,"CC(C)c1cccc(C(C)C)c1NC(=O)NS(=O)(=O)c1ccc(C(C)(C)O)cc1 [Compound 169, N-(2,6-diisopropylphenylcarbamoyl)-4-(2-hydroxypropan-2-yl)benzenesulfonamide]"
16,1 to 5 µM,"CC(C)c1ccc(F)c(C(C)C)c1NC(=O)NS(=O)(=O)c1ccc(C(C)(C)O)cc1 [Compound 170, N-(3-fluoro-2,6-diisopropylphenylcarbamoyl)-4-(2-hydroxypropan-2-yl)benzenesulfonamide]"
17,1 to 5 µM,"COC(=O)c1ccc(F)c(S(=O)(=O)NC(=O)Nc2c(C(C)C)cc(Cl)cc2C(C)C)c1 [Compound 171, methyl 3-(N-(4-chloro-2,6-diisopropylphenylcarbamoyl)sulfamoyl)-4-fluorobenzoate]"
